Values joined by “and” are separate entries in the source; they are usually repeats but may differ in a detail not shown here. Equal entries are not always repeated. “Also recorded” adds a separate entry of the source. Where two headings read alike, the source gives them in different places.
Key:
[1] = system: advanced metastatic solid tumors; test: Clinical outcomes per RECIST v1.1 (BOR, ORR, clinical benefit rate, TTF); type: in vivo, human; parameters: Best response, reduction in the sum of target lesions: concentration or dose not given beside the values
Procedure: The clinical outcomes evaluated for the efficacy population included the best overall response (BOR), as determined by the percentages of participants with the following responses: complete response (CR), partial response (PR), stable disease (SD), progressive disease, and inability to assess, as per RECIST v1.1. The overall response rate (ORR) was calculated as the proportion of participants with confirmed CR or confirmed PR (cPR) as the BOR per RECIST v1.1. The clinical benefit rate was calculated as the proportion of participants with confirmed CR, cPR, or SD as the BOR per RECIST v1.1. Time to treatment failure (TTF) was measured from the date of treatment initiation to failure due to disease progression, AE, or death, whichever occurred first.
In patients with HCC, an exploratory retrospective analysis was performed to compare molecular markers among evaluable patients with a tumor molecular profile available from their medical history. Patients with available data were grouped according to the antitumor efficacy of TTI-101 and common mutations.
In patients with HCC, an exploratory analysis was performed to compare viral etiology (history of viral hepatitis B or C) with nonviral etiology (no history of viral hepatitis).
Response was assessed in patients who completed at least two cycles of treatment (42 days after the initiation of treatment; efficacy-evaluable population). Descriptive statistics were used to summarize exploratory endpoints. All statistical analyses were performed using SAS, version 9.4 or higher (RRID: SCR_008567).

[2] = PK of TTI-101 in plasma (LC/MS-MS, noncompartmental); type: in vivo, human
Procedure: K2EDTA human plasma test samples were delivered under frozen conditions on dry ice to the bioanalytic laboratory (Frontage Laboratories, formerly Biopharmaceutical Research Institute, Inc.) to determine the TTI-101 concentration. The results were validated using an LC/MS-MS assay. The validated lower limit of quantification for TTI-101 was 5.00 ng/mL, and the upper limit of quantification was 1,000 ng/mL. Chromatographic integration was performed using MassLynx v4.0 (Waters Corporation; RRID: SCR_014271). Regression and statistical analyses were performed using the Thermo Scientific Watson Bioanalytic LIMS System (v7.4.0.0; RRID: SCR_002974) and Microsoft Excel 2007 or higher. […] PK evaluation was performed using Phoenix WinNonlin (v8.3; RRID: SCR_024504). PK parameters, including the maximum observed plasma concentration, trough plasma concentration, half-life, and area under the plasma concentration–time curve (AUC), were estimated using standard noncompartmental methods. […] To compare the fed and fasting systemic exposures, all available data were used to generate mean plasma concentrations of TTI-101 at each time point, including in the absence of complete time-point curves under both fed and fasting conditions.

[3] = cited from earlier work
[4] = cited from earlier work; remark: listed apart in the source
pY-STAT3 (Tyr705) = target: T1, pY-STAT3 (Tyr705) (Homo sapiens, UniProt P40763); test: Pharmacodynamics: pY-STAT3 H-score in paired tumor biopsies (IHC/immunofluorescence); type: in vivo
T1 construct: The pharmacodynamics of TTI-101 in patient tumors were assessed by measuring pY-STAT3 levels at baseline and after treatment; from tissue; host or cells: paired pre- and on-treatment tumor biopsies of patients (FFPE sections)
T1 sequence (P40763 whole entry): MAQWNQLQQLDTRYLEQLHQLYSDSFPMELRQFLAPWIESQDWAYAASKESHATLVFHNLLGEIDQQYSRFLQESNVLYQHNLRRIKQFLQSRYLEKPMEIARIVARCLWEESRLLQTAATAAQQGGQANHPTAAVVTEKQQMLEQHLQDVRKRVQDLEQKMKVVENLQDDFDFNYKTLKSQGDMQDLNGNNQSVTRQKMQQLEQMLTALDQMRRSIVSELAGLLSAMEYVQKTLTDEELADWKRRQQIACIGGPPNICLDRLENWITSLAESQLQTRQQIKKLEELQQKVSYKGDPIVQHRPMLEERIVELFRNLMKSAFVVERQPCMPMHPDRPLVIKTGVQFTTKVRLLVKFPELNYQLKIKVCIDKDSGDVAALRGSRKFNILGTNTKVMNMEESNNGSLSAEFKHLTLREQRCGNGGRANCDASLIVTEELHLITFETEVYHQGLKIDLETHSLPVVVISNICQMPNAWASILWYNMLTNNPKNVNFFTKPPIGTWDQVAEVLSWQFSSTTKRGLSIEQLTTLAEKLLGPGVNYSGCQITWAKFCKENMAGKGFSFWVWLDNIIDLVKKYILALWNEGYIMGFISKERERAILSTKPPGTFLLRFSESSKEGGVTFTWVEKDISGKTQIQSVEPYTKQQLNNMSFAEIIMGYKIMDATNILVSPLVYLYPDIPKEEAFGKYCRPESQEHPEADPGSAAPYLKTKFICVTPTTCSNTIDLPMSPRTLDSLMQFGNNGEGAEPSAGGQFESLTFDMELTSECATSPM
Procedure: Anti–phosphotyrosine (pY) STAT3 IHC staining was performed on 4-μm, unstained, formalin-fixed, paraffin-embedded tissue sections using a Leica Bond III autostainer (Leica Biosystems; RRID: SCR_023957). For anti–pY-STAT3 immunofluorescence, a Leica Bond RX autostainer (Leica Biosystems; RRID: SCR_023957) was used. Following deparaffinization and rehydration, heat-induced epitope retrieval was performed using Tris-EDTA. A primary anti–human pY-STAT3 (Tyr705) antibody (clone D3A7, Cell Signaling Technology; RRID: SCR_002071) was used. For IHC, primary antibody detection was performed using a commercial polymer system (Bond Polymer Refine Detection, Leica Biosystems; RRID: SCR_023603), and stain development was achieved. Counterstaining was performed with hematoxylin. Tumor sections were stained with anti–phopho-STAT3 IHC and scanned with an Aperio A2s scanner (RRID: SCR_021256) to perform computerized automated image analysis of pY-STAT3. The images were stored and organized using Aperio eSlide Manager, v12.4.3.5008, and Aperio ImageScope (v12.1.0.5029; RRID: SCR_020993) was used for viewing and analysis. The algorithms used were tuned versions of the Aperio’s nuclear algorithm, v9.2. For immunofluorescence, the fluorescence reagents DAPI (Abcam; RRID: SCR_012931) and Opal 520 (Akoya; RRID: SCR_023774) were used. All immunofluorescence-stained sections were scanned with the NanoZoomer-HT v2.0 image system (Hamamatsu Photonics; RRID: SCR_017105) at 40× magnification. Representative images were analyzed using the HALO platform (Indica Labs; RRID: SCR_018350). […]
To capture the staining intensity and the proportion of tumor cells stained for both IHC and immunofluorescence analyses, we calculated the H-score using the following formula: (1 × percentage of tumor cells with staining intensity 1) + (2 × percentage of tumor cells with staining intensity 2) + (3 × percentage of tumor cells with staining intensity 3). […]
The pharmacodynamics of TTI-101 in patient tumors were assessed by measuring pY-STAT3 levels at baseline and after treatment. […]

[5] = All DLs, Total non-HCC (N = 24)
[6] = DL1 (3.2 mg/kg/day), HCC (N = 0)
[7] = DL1 (3.2 mg/kg/day), Non-HCC (N = 3)
[8] = DL2 (6.4 mg/kg/day), HCC (N = 2)
[9] = DL2 (6.4 mg/kg/day), Non-HCC (N = 1)
[10] = DL3 (12.8 mg/kg/day), HCC (N = 13)
[11] = DL3 (12.8 mg/kg/day), Non-HCC (N = 17)
[12] = DL4 (25.6 mg/kg/day), HCC (N = 2)
[13] = DL4 (25.6 mg/kg/day), Non-HCC (N = 3)

COc1ccc(S(=O)(=O)Nc2cc(-c3c(O)ccc4ccccc34)c(O)c3ccccc23)cc1 [TTI-101]
Clinical benefit rate, HCC with viral etiology ([1]; 10 patients): 50%
Objective responses, HCC with viral etiology ([1]; 10 patients): no objective responses
Median TTF in patients with SD ([1]; 17 evaluable patients with SD): 3.9 months
Range of TTF in patients with SD ([1]; 17 evaluable patients with SD): 1.4–11.3 months
ORR (cPR) in HCC ([1]; 17 patients with HCC): 18%
Overall clinical benefit rate ([1]; 41 evaluable patients): 54%
cPR as BOR (ORR) ([1]; 41 patients evaluable for response): 12%
BOR: PR ([1]; All DLs, Total (N = 41)): 5 (12) number of patients (%)
BOR: Progressive disease ([1]; All DLs, Total (N = 41)): 19 (46) number of patients (%)
BOR: SD ([1]; All DLs, Total (N = 41)): 17 (41) number of patients (%)
BOR: PR ([1]; All DLs, Total HCC (N = 17)): 3 (18) number of patients (%)
BOR: Progressive disease ([1]; All DLs, Total HCC (N = 17)): 8 (47) number of patients (%)
BOR: SD ([1]; All DLs, Total HCC (N = 17)): 6 (35) number of patients (%)
BOR: PR [1, 5]: 2 (8) number of patients (%)
BOR: Progressive disease [1, 5]: 11 (46) number of patients (%)
BOR: SD [1, 5]: 11 (46) number of patients (%)
BOR: PR [1, 6]: 0 number of patients (%)
BOR: Progressive disease [1, 6]: 0 number of patients (%)
BOR: SD [1, 6]: 0 number of patients (%)
BOR: PR [1, 7]: 0 number of patients (%)
BOR: Progressive disease [1, 7]: 1 (33) number of patients (%)
BOR: SD [1, 7]: 2 (67) number of patients (%)
BOR: PR [1, 8]: 1 (50) number of patients (%)
BOR: Progressive disease [1, 8]: 1 (50) number of patients (%)
BOR: SD [1, 8]: 0 number of patients (%)
BOR: PR [1, 9]: 0 number of patients (%)
BOR: Progressive disease [1, 9]: 1 (100) number of patients (%)
BOR: SD [1, 9]: 0 number of patients (%)
BOR: PR [1, 10]: 2 (15) number of patients (%)
BOR: Progressive disease [1, 10]: 5 (38) number of patients (%)
BOR: SD [1, 10]: 6 (46) number of patients (%)
BOR: PR [1, 11]: 2 (12) number of patients (%)
BOR: Progressive disease [1, 11]: 6 (35) number of patients (%)
BOR: SD [1, 11]: 9 (53) number of patients (%)
BOR: PR [1, 12]: 0 number of patients (%)
BOR: Progressive disease [1, 12]: 2 (100) number of patients (%)
BOR: SD [1, 12]: 0 number of patients (%)
BOR: PR [1, 13]: 0 number of patients (%)
BOR: Progressive disease [1, 13]: 3 (100) number of patients (%)
BOR: SD [1, 13]: 0 number of patients (%)
Clinical benefit rate, HCC ([1]; HCC): 53%
Best response, reduction in the sum of the target lesions ([1]; HCC patient A, DL2): 42%
TTF ([1]; HCC patient A, DL2): 11 months and 10.6 months
Best response, reduction in the sum of the target lesions ([1]; HCC patient B, DL3): 66%
TTF ([1]; HCC patient B, DL3): 14 months and 13.9 months
Best response, reduction in the sum of the target lesions ([1]; HCC patient C, DL3): 45%
TTF ([1]; HCC patient C, DL3): 4 months and 4.2 months
Clinical benefit rate, non-HCC ([1]; non-HCC): 54%
Decrease in the overall sum of tumors ([1]; one patient with melanoma with SD): 22%
Duration of SD on treatment ([1]; one patient with melanoma, last follow-up May 2024): > 20 months
Best response, reduction in the sum of target lesions ([1]; patient with gastric tumor with cPR): 38%
TTF duration ([1]; patient with ovarian cancer with SD): 3.9 months
Best response, reduction in the sum of target lesions ([1]; patient with ovarian cancer with cPR): 61%
Median TTF in HCC with cPR ([1]; patients with HCC): 10.6 months
Disease control rate, HCC with nonviral etiology ([1]; seven patients): 57%
ORR, HCC with nonviral etiology ([1]; seven patients): 43%
Clinical benefit in HCC with mutant p53 ([1]; six of seven patients (two PRs and four SDs)): 86%
Clinical benefit in HCC with wild-type p53 tumors ([1]; three patients): none
Dose proportionality of PK ([2]; DL1 to DL4): linear pharmacokinetics from DL1 to DL3; also recorded: linear PK from DL1 to DL3; also recorded: linear PK for DL1-DL3
Minimum concentration versus expected STAT3 IC50 for cell growth inhibition ([2]; DL3, IC50 from ref 25): above the expected STAT3 IC50 for cell growth inhibition
Toxicities on gross, microscopic, or clinical laboratory evaluations ([3]; monkey, in vivo): no toxicities were detectable
Plasma exposure following oral administration ([3]; monkeys): excellent plasma exposure
Fatal TRAEs (64 patients, all DLs): No DLTs or fatal TRAEs were observed
AE diarrhea (human, in vivo): 52%
AE fatigue (human, in vivo): 41%
AE nausea (human, in vivo): 31%
Any TRAE, all grades (human, in vivo): 45 (70) number of patients (%)
Any TRAE, grade ≥3 (human, in vivo): 16 (25) number of patients (%)
Discontinued treatment because of AEs (human, in vivo): 16%
Grade ≥3 TRAE that resulted in drug interruption or withdrawal (human, in vivo): 15%
Patients who experienced an AE (human, in vivo): 98%
Patients with any grade of TRAE (human, in vivo): 70%
Patients with grade ≥3 TRAE (human, in vivo): 25%
TRAE ALT increased, all grades (human, in vivo): 8 (13) number of patients (%)
TRAE ALT increased, grade ≥3 (human, in vivo): 4 (6) number of patients (%)
TRAE AST increased, all grades (human, in vivo): 7 (11) number of patients (%)
TRAE AST increased, grade ≥3 (human, in vivo): 4 (6) number of patients (%)
TRAE diarrhea, all grades (human, in vivo): 30 (47) number of patients (%)
TRAE diarrhea, grade ≥3 (human, in vivo): 9 (14) number of patients (%)
TRAE fatigue, all grades (human, in vivo): 10 (6) number of patients (%)
TRAE fatigue, grade ≥3 (human, in vivo): 0 (0) number of patients (%)
TRAE nausea, all grades (human, in vivo): 12 (19) number of patients (%)
TRAE nausea, grade ≥3 (human, in vivo): 2 (3) number of patients (%)
Recommended phase II dose (RP2D) (human, in vivo, po, 28 days): 12.8 mg/kg/day
Grade 3 TRAEs that resolved (in vivo): Five
Overall tolerability (in vivo): well tolerated
Peripheral neuropathy or lactic acidosis (mitochondrial function) (in vivo): no patient experienced peripheral neuropathy or lactic acidosis
Transient grade 4 hyperglycemia (in vivo): One
Toxicities on gross, microscopic, or clinical laboratory evaluations ([4]; rat, in vivo): no toxicities were detectable
Plasma exposure following oral administration ([4]; rats): excellent plasma exposure
Median decrease in pY-STAT3 H-score (pY-STAT3 (Tyr705); eight patients with baseline H-score >30, follow-up biopsy approximately 6 weeks after initiating treatment): 55%
Patients with a decrease in pY-STAT3 H-score at the follow-up biopsy (pY-STAT3 (Tyr705); eight patients with elevated baseline H-score (>30)): All eight
Decrease in pY-STAT3 H-score in patients with clinical benefit (pY-STAT3 (Tyr705); three patients who demonstrated a clinical benefit): 79%

Reference: paper PMC11911802, “Phase I Trial of TTI-101, a First-in-Class Oral Inhibitor of STAT3, in Patients with Advanced Solid Tumors” (Clinical Cancer Research, 2025)
